From ChEMBL document CHEMBL1201862, “PubChem BioAssay data set” (2004)
Active and inactive are the calls of the source.

Legend:
[1] = Luminescence Cell-Based Dose Confirmation HTS to Identify Activators of 5'UTR Stem-Loop Driven Alpha-Synuclein mRNA Translation in H4 Neuroglioblastoma Cells. [Related pubchem assays: 1829 (Project Summary), 1814 (Primary HTS)]; type: functional
[2] = Luminescence Cell-Based Dose Response HTS to Identify Activators of Luciferase Translation or Activity in H4 […] Cells. [Related pubchem assays: 1829 (Project Summary), 1814 (Primary HTS)]; type: functional
[3] = cytotoxicity in KRAS-transformed pancreatic duct cells, primary screen, cell-based, fluorescence, HTS (AID 431); type: functional; settings: Homo sapiens;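 also: cell line used: HPDE-C7K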
[4] = cytotoxicity in HPDE-C7 cells, cell-based, fluorescence, HTS (AID 430); type: functional; settings: Homo sapiens
[5] = target: Cytochrome P450 3A4 (Homo sapiens, UniProt P08684);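 also: CYP3A4 tested as one member of a cytochrome P450 panel screen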
[6] = tested on: H4; experiment: Luminescence Cell-Based Dose Response HTS to Identify Activators of 5'UTR Stem-Loop Driven Prion Protein mRNA Translation in H4 Neuroglioblastoma Cells. [Related pubchem assays: 1829 (Project Summary), 1814 (Primary HTS)]; type: functional; settings: Homo sapiens
[7] = target: Beta-galactosidase (Escherichia coli, UniProt Q8VNN2); experiment: beta-galactosidase enzyme inhibitors and activators, dose response, artefact control for CCR6 antagonist project, biochemical, E. coli enzyme, set 3 (AID 504712); type: functional
[8] = HepG2 cell cytotoxicity, dose response, cytotoxicity control for non-replicating M. tuberculosis project (AID 489018); type: functional; settings: Mycobacterium tuberculosis
[9] = Vero E6 cell cytotoxicity, dose response, cytotoxicity control for non-replicating M. tuberculosis project, secondary assay (AID 492998); type: functional, VeroE6; settings: Vero C1008
[10] = cells; type: functional
[11] = THP-1 cell cytotoxicity, dose response, cytotoxicity control for non-replicating M. tuberculosis project (AID 489025); type: functional
[12] = target: T1, Polyadenylate-binding protein 1 (Homo sapiens, UniProt P11940); experiment: PABP1 MLLE–PAM2 interaction inhibitors, dose response, miRNA deadenylation inhibitor project, biochemical, fluorescence polarization, Cy5-PAM2 peptide, secondary (AID 602260); type: functional; settings: read-out: IC50_Mean
[13] = target: T2, Aminopeptidase N (Plasmodium falciparum FcB1/Columbia, UniProt O96935); experiment: P. falciparum M1AAP inhibitors, biochemical, fluorogenic H-Leu-NHMec substrate, 1536-well (AID 1445); design: species or system Plasmodium falciparum 3D7, 3D7
T2 sequence (O96935 whole entry): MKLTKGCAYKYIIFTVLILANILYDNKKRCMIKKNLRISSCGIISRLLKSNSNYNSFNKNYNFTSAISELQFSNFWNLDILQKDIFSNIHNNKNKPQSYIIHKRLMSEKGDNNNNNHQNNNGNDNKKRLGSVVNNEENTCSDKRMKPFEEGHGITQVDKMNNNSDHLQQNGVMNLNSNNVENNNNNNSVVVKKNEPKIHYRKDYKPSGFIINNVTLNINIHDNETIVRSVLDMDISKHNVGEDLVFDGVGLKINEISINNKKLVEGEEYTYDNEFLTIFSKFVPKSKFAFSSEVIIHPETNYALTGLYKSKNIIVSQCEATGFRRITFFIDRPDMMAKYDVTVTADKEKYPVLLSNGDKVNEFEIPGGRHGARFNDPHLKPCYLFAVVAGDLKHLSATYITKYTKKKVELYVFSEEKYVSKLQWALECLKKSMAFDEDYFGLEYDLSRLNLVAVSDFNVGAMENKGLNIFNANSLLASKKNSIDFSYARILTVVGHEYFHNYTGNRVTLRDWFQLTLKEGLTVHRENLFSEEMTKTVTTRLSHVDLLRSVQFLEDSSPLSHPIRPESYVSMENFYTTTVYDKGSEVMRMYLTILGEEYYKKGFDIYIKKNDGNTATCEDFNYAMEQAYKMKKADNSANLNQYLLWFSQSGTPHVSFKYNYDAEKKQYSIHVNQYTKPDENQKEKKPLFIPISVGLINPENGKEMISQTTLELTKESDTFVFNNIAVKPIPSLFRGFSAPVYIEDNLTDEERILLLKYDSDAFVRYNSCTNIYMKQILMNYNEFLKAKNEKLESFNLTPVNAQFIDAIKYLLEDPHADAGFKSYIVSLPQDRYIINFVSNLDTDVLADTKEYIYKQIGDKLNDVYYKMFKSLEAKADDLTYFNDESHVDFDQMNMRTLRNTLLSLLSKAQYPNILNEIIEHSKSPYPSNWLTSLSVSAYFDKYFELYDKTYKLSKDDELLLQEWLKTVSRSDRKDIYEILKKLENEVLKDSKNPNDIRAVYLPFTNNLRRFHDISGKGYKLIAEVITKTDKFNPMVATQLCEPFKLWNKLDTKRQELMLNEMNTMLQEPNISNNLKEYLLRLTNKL

[14] = target: T1, Polyadenylate-binding protein 1; experiment: PABP1 MLLE–PAM2 binding inhibitor potency, dose response, biochemical, fluorescence polarization, FITC-PAM2 peptide (AID 602259); type: functional; settings: read-out: IC50_Mean
[15] = target: T3, Ubiquitin-conjugating enzyme E2 N (Homo sapiens, UniProt P61088); type: functional;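 also: Dose-response confirmation in a TR-FRET assay detecting UBC13-driven polyubiquitin chain formation, inhibition measured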
T3 sequence (P61088 whole entry): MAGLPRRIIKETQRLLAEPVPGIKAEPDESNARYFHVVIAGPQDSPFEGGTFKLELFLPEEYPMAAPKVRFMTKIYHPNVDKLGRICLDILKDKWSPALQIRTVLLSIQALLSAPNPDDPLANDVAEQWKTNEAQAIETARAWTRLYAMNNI

[16] = target: Paired box protein Pax-8 (Homo sapiens, UniProt Q06710); experiment: inhibitors of PAX8-driven TPO luciferase reporter, dose response, RMG-I cells, cherry-pick (AID 687027); type: functional, cell-based;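 also: luciferase reporter driven by Pax8 target thyroperoxidase promoter measured by SteadyGlo luminescence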
[17] = target: Disintegrin and metalloproteinase domain-containing protein 17 (Homo sapiens, UniProt P78536); experiment: ADAM17 protease inhibitors, dose response, counter-screen for ADAM10 exosite inhibitor project, biochemical, quenched FRET substrate (AID 743253)
[18] = target: T4, Zinc finger protein mex-5 (Caenorhabditis elegans, UniProt Q9XUB2); experiment: MEX-5/TCR-2 RNA interaction inhibitors, dose response, biochemical, C. elegans, fluorescence polarization (AID 1960)
T4 sequence (Q9XUB2 whole entry): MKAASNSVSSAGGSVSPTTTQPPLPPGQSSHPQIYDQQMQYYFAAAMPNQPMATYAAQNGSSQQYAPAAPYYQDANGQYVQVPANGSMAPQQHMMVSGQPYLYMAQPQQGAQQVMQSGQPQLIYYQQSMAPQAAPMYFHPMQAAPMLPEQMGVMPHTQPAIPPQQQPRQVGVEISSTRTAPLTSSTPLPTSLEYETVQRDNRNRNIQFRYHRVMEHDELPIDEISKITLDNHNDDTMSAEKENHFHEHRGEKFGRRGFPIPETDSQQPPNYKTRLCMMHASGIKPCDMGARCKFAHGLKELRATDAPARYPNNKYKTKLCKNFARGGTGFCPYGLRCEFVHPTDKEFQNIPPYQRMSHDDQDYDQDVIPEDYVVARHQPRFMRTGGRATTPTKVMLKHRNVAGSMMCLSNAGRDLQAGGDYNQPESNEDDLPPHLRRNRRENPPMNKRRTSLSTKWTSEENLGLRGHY

[19] = target: T5, RNA-binding protein pos-1 (Caenorhabditis elegans, UniProt G5EF15); experiment: inhibitors of POS-1/mex-3 RNA binding, dose response, biochemical, fluorescence polarization (AID 1964);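 also: purified POS-1 fused to maltose binding protein made in E. coli; potency of compounds blocking POS-1 binding to fluorescent RNA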
T5 sequence (G5EF15 whole entry): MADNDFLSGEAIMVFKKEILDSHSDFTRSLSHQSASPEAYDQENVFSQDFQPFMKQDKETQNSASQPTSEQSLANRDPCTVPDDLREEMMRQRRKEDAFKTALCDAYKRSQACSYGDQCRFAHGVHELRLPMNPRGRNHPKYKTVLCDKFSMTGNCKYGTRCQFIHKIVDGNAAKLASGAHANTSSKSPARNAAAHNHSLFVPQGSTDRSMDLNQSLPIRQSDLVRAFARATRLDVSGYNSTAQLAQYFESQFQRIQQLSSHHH

[20] = target: Cytochrome P450 2C19 (Homo sapiens, UniProt P33261); experiment: Cytochrome panel assay with activity outcomes. Panel member name: p450-cyp2c19 Compounds with AC50 equal or less than 10 uM are considered active; type: functional; settings: read-out: AC50
[21] = target: T6, fMet-Leu-Phe receptor (Homo sapiens, UniProt P21462); experiment: FPR ligands, dose response (AID 519); type: functional
T6 sequence (P21462 whole entry): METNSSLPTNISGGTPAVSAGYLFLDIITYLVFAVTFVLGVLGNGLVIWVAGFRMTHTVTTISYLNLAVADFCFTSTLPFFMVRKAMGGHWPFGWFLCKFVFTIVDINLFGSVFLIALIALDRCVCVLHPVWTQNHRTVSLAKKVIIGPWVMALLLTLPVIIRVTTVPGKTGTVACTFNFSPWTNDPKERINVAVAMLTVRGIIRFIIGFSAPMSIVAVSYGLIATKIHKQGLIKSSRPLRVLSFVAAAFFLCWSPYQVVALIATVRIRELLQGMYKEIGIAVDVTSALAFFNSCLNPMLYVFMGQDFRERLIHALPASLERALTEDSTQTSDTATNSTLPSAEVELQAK

[22] = target: Nonstructural protein 1 (Influenza A virus, UniProt Q194T2); type: functional, Influenza A virus (A/California/07/2009(H1N1))
[23] = Luminescence Cell-Based Dose Retest to Confirm Inhibitors of Cancer Stem Cells. [Related pubchem assays (depositor defined):AID2717, AID2721]; type: functional; settings: Homo sapiens
[24] = target: G-protein coupled receptor 55 (Homo sapiens, UniProt Q9Y2T6); experiment: GPR55 agonists via beta-arrestin recruitment, primary screen, imaging, U2OS cells, beta-arrestin-GFP redistribution (AID 1961); type: functional
[25] = target: Voltage-gated N-type calcium channel alpha-1B subunit/Amyloid beta A4 precursor protein-binding family A member 1 (Homo sapiens, UniProt Q00975+Q02410); type: protein assay

Chain of Cytochrome P450 3A4 (P08684 whole entry): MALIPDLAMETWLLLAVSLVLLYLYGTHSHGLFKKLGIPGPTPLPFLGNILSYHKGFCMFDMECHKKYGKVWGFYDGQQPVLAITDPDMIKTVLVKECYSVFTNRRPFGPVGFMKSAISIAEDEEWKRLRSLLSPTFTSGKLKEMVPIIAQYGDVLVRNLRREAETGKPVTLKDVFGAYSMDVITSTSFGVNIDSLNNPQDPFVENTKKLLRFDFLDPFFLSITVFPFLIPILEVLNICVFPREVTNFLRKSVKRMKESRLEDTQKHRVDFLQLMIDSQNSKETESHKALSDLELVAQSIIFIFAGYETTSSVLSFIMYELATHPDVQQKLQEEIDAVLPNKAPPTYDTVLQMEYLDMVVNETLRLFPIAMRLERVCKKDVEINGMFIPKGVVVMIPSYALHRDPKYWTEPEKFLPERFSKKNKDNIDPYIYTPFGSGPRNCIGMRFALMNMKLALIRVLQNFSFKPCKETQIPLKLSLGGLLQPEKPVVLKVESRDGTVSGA
T1 sequence (P11940 whole entry): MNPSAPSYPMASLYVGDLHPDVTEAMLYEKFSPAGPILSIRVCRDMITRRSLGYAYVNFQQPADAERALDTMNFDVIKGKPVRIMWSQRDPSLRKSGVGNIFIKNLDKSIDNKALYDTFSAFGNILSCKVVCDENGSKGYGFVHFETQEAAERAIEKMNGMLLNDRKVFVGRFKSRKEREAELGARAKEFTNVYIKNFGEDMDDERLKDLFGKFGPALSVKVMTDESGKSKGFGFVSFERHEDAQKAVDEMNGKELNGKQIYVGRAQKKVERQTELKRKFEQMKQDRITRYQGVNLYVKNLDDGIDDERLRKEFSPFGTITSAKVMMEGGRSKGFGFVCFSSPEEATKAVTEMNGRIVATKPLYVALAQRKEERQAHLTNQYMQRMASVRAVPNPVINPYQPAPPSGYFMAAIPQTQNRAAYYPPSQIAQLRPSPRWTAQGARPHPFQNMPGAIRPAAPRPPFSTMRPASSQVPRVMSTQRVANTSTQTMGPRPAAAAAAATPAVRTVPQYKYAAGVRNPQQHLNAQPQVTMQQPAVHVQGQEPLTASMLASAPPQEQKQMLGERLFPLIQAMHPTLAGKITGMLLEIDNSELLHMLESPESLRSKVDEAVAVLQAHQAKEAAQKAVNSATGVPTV
Chain of Cytochrome P450 2C19 (P33261 whole entry): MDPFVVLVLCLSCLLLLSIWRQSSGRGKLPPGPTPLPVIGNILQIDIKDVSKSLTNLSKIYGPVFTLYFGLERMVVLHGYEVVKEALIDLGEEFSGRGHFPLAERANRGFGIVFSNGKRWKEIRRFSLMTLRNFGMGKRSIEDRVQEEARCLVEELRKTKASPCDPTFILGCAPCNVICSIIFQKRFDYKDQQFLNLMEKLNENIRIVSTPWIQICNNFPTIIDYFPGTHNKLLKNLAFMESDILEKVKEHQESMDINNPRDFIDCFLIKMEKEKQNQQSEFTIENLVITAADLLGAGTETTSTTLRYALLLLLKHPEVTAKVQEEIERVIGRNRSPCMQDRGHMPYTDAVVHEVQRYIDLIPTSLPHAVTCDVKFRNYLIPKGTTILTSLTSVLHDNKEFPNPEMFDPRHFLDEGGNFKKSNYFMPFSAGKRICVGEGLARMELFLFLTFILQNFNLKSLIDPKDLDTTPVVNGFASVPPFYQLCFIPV
Chain of Beta-galactosidase (Q8VNN2 whole entry): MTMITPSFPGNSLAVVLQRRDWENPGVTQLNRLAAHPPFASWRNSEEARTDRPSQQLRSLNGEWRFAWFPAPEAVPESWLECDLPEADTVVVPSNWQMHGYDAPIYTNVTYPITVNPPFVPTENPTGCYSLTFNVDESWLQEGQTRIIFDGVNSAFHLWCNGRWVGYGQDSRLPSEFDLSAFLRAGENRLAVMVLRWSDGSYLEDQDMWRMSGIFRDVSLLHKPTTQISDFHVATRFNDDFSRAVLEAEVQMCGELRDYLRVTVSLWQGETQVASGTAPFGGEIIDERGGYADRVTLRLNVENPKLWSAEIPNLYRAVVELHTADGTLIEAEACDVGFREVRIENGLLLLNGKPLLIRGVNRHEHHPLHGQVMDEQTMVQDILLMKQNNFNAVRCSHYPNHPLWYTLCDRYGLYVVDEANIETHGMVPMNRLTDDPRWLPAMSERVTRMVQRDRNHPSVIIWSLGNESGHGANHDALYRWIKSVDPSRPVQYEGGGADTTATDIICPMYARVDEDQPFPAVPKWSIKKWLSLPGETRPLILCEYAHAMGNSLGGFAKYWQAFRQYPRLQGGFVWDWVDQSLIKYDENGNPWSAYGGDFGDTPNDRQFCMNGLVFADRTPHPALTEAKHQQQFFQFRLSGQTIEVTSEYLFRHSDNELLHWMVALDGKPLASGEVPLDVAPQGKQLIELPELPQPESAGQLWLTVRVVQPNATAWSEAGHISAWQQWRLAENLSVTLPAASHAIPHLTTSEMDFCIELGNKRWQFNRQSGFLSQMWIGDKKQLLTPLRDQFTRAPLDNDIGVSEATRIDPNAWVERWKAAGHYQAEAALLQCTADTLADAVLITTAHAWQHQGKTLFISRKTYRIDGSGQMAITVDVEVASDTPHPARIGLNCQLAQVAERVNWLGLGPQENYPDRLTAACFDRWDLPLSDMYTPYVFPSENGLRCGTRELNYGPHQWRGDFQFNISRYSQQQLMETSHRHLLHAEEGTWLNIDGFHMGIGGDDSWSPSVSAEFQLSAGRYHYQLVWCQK
Chain of Nonstructural protein 1 (Q194T2 whole entry): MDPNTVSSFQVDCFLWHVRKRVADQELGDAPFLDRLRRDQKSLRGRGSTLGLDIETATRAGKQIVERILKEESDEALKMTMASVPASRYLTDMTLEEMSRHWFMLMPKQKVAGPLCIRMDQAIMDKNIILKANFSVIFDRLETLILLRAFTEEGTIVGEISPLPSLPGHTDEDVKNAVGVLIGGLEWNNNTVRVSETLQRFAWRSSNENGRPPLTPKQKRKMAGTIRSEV
Chain of Paired box protein Pax-8 (Q06710 whole entry, the tested form may be a part): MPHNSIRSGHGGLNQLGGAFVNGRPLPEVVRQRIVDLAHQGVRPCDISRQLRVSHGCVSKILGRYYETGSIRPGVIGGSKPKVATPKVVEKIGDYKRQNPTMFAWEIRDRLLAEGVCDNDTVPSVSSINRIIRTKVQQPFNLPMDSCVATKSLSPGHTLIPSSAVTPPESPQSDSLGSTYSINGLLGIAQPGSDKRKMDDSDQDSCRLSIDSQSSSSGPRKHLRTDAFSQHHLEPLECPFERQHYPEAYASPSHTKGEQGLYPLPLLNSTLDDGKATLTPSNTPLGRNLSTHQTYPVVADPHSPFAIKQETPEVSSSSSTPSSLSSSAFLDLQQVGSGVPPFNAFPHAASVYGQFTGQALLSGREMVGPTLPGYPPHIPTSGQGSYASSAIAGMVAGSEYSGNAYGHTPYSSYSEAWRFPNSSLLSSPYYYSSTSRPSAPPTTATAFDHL
Chain of Disintegrin and metalloproteinase domain-containing protein 17 (P78536 whole entry, the tested form may be a part): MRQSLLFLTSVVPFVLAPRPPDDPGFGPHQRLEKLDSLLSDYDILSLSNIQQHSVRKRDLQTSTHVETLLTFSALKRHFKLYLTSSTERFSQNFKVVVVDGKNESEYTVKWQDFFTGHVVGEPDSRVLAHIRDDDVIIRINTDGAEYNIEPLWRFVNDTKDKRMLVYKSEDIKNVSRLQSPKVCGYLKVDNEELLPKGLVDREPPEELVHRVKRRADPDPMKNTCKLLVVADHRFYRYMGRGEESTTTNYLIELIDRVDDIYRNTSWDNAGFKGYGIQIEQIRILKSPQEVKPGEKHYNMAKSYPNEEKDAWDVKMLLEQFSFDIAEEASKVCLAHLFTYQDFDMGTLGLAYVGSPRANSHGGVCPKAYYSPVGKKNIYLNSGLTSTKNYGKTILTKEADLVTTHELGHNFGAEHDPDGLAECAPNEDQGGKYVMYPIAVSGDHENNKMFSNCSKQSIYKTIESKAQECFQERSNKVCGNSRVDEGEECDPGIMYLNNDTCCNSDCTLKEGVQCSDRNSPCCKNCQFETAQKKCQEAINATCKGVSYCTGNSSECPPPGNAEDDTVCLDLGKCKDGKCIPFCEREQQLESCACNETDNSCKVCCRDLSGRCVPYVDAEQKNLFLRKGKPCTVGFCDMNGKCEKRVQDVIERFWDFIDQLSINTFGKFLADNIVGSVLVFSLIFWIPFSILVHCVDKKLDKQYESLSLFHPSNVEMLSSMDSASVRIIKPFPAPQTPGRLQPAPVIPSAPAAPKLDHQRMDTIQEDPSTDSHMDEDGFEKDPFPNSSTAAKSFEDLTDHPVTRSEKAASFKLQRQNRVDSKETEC
Chain of G-protein coupled receptor 55 (Q9Y2T6 whole entry): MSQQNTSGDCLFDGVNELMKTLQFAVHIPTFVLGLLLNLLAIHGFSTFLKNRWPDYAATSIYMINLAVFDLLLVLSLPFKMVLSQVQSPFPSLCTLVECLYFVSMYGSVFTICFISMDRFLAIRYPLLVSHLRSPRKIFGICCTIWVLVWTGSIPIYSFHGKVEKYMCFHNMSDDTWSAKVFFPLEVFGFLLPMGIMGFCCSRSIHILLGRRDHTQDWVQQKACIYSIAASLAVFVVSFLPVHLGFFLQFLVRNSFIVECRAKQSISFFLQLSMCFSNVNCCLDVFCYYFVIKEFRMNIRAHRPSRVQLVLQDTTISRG

## CCOC(=O)C1=C(N)n2c(s/c(=C\c3ccco3)c2=O)=C(C(=O)OCC)C1c1ccco1 (stereo not given)
[1]
  EC50: > 120 µM (not active)
[2]
  EC50: > 120 µM (not active)
[3]
  EC50: 1.19 µM (active)
[4]
  EC50: 1.47 µM (active)
[5]
  AC50: 28.2 µM (inconclusive)
[6]
  EC50: > 120 µM (not active)

## Cc1ccc(Cl)cc1N1CCN(C(=O)c2ccc(NS(=O)(=O)c3c(C)noc3C)cc2)CC1
[3]
  EC50: 16.7 µM (active)
[4]
  EC50: 13.2 µM (active)

## O=C(CSc1nccn1-c1ncc(C(F)(F)F)cc1Cl)c1ccc(Cl)cc1
[7]
  IC50: > 66.6 µM (inactive)

## Cc1ccc(NC(=O)c2ccc([N+](=O)[O-])o2)c(C)c1
[8]
  CC50: > 20 µM (active)
[9]
  CC50: 6.74 µM (active)
[10]
  IC50: 3.46 µM (active)
[11]
  CC50: 15.4 µM (active)

## Cc1ccc(/C=C2\SC(=S)N(c3c(C)n(C)n(-c4ccccc4)c3=O)C2=O)cc1
[12]
  IC50: > 66 µM (inactive)
[13]
  IC50: 120 µM (active)
[14]
  IC50: > 66 µM (inactive)

## NC(=O)c1nsc(C(=O)N(c2ccc(F)cc2)C(C(=O)NCC2CCCO2)c2c[nH]c3ccccc23)c1N (stereo not given)
[15]
  IC50: > 20 µM (inactive)

## O=c1[nH]c2ccccc2n1C1CCN(C(c2ccccc2OC(F)(F)F)c2nnnn2-c2ccc3c(c2)OCCO3)CC1 (stereo not given)
[16]
  AC50: 4.52 µM (active)
[17]
  IC50: > 69.5 µM (inactive)

## Oc1[nH]c2ccc(Br)cc2c1N=Nc1nn[nH]n1
[18]
  EC50: 5.18 µM (active)
[19]
  EC50: 14 µM (active)
[13]
  IC50: 26.5 µM (active)

## O=C(CNC(=O)c1ccccc1Cl)N/N=C/c1ccc([N+](=O)[O-])s1
[8]
  CC50: > 20 µM (active)
[9]
  CC50: 13.6 µM (active)
[10]
  IC50: 36.6 µM (active)
[11]
  CC50: 25 µM (active)

## CCN1C(=O)/C(=C2\SC(=S)N(CCCOC)C2=O)c2ccccc21
[20]
  AC50: 11.2 µM (inconclusive)
[5]
  AC50: 3.55 µM (inconclusive)
[21]
  Ki: > 66.7 µM (inactive)
[22]
  IC50: 62.7 µM (active)

## N#CC1=C(SCC(=O)c2ccc(Br)cc2)N=C2CCCC(O)=C2C1c1ccco1 (stereo not given)
[3]
  EC50: 5.58 µM (active)
[4]
  EC50: 4.34 µM (active)
[23]
  AC50: 2.13 µM (active)

## C=CCOc1ccc(C2C(C(=O)c3cccs3)=C(O)C(=O)N2c2nnc(C)s2)cc1 (stereo not given)
[18]
  EC50: 3.06 µM (active)
[19]
  EC50: 10.8 µM (inconclusive)
[21]
  Ki: 40.5 µM (inactive)

## OCCNc1nc(O)c2c(ncn2Cc2ccccc2)n1
[24]
  EC50: > 32 µM (inactive)

## NS(=O)(=O)c1ccc(N/N=C/c2ccc3c(c2)OCO3)c([N+](=O)[O-])c1
[25]
  IC50: 3.59 µM (active)

## CCC1(C)Nc2ccccc2C(=O)N1O (stereo not given)
[3]
  EC50: > 20 µM (not active)
[4]
  EC50: 17.1 µM (active)
